# Measurements reported in PMC9687286, “Hydrophobic Rose Bengal Derivatives Exhibit Submicromolar-to-Subnanomolar Activity against Enveloped Viruses” (Biomolecules, 2022).
# Counter-ions that a name gives are not always drawn.
# How the values were obtained:
# [1] = test system: Enterovirus C vaccine strain Sabin 1 of poliovirus type 1 (PV1); test: microbe, parasite or virus in culture; type: cell-based; conditions: RD, 120 h, read-out: EC50 (M ± SD), PV1
# [2] = test system: Enterovirus B Echovirus 13 (E13) isolate 57088; test: microbe, parasite or virus in culture; type: cell-based; conditions: RD, 120 h, read-out: EC50 (M ± SD), E13
# [3] = Cell viability assay (resazurin) for Vero cells; conditions: African green monkey, confluent Vero cell monolayers
# [4] = Cell viability assay for RD cells; conditions: human
# [5] = test system: SARS-CoV-2 strain PIK35; test: microbe, parasite or virus in culture; type: cell-based; conditions: Severe acute respiratory syndrome coronavirus 2, Vero, read-out: EC50 (M ± SD), SARS-CoV-2
# [6] = physchem; conditions: aqueous with cosolvent or surfactant or cyclodextrin
# [7] = Cell viability assay for MT-4 cells; conditions: human
# [8] = test system: CHIKV strain Nic; test: microbe, parasite or virus in culture; type: cell-based; conditions: Chikungunya virus, Vero, read-out: EC50 (M ± SD), CHIKV
# [9] = test system: Enterovirus A Coxsackievirus A16 (CVA16) isolate 49360; test: microbe, parasite or virus in culture; type: cell-based; conditions: RD, 120 h, read-out: EC50 (M ± SD), CVA16
# [10] = test system: HIV-1 strain NL4-3; test: microbe, parasite or virus in culture; type: cell-based; conditions: Human immunodeficiency virus 1, NL43, MT4, 168 h, read-out: EC50 (M ± SD), HIV
SMILES,EC50 [1],EC50 [2],CC50 at 5 days [3],CC50 at 5 days [4],EC50 [5],solubility kinetic [6],CC50 at 7 days [7],EC50 [8],EC50 [9],EC50 [10]
"CCCCOC(=O)c1c(Cl)c(Cl)c(Cl)c(Cl)c1-c1c2cc(I)c(=O)c(I)c-2oc2c(I)c(O)c(I)cc12 [2a, Rose Bengal N-Butyl Ester, Monosodium Salt]",> 100 µM,> 100 µM,8 ± 1 µM,21.3 ± 5.2 µM,0.05 ± 0.02 µM,3.1 µM,15 ± 4 µM,0.004 ± 0.002 µM,> 100 µM,6.3 ± 2.6 µM
"CCCCCCOC(=O)c1c(Cl)c(Cl)c(Cl)c(Cl)c1-c1c2cc(I)c(=O)c(I)c-2oc2c(I)c(O)c(I)cc12 [2b, Rose Bengal N-Hexyl Ester, Monosodium Salt]",> 100 µM,> 100 µM,60 ± 15 µM,21.3 ± 5.2 µM,0.4 ± 0.3 µM,1 µM,15 ± 4 µM,0.0007 ± 0.0003 µM,> 100 µM,4.4 ± 1.8 µM
"CCCCCCCCOC(=O)c1c(Cl)c(Cl)c(Cl)c(Cl)c1-c1c2cc(I)c(=O)c(I)c-2oc2c(I)c(O)c(I)cc12 [2c, Rose Bengal N-Octyl Ester, Monosodium Salt]",> 100 µM,> 100 µM,53 ± 25 µM,21.3 ± 5.2 µM,5.3 ± 1.3 µM,–,42 ± 10 µM,0.0002 ± 0.0001 µM,> 100 µM,8.8 ± 3.7 µM
"CCCCCCCCCCOC(=O)c1c(Cl)c(Cl)c(Cl)c(Cl)c1-c1c2cc(I)c(=O)c(I)c-2oc2c(I)c(O)c(I)cc12 [2d, Rose Bengal N-Decyl Ester, Monosodium Salt]",> 100 µM,> 100 µM,60 ± 15 µM,10.7 ± 2.6 µM,6.6 ± 3.1 µM,–,42 ± 10 µM,0.002 ± 0.001 µM,> 100 µM,8.8 ± 2.6 µM
"CCCCCCCCCCCCOC(=O)c1c(Cl)c(Cl)c(Cl)c(Cl)c1-c1c2cc(I)c(=O)c(I)c-2oc2c(I)c(O)c(I)cc12 [2e, Rose Bengal N-Dodecyl Ester, Monosodium Salt]",> 100 µM,> 100 µM,> 100 µM,21.3 ± 5.2 µM,43 ± 10 µM,–,> 50 µM,0.038 ± 0.03 µM,> 100 µM,> 50 µM
"Cc1cn([C@H]2C[C@H](N=[N+]=[N-])[C@@H](CO)O2)c(=O)[nH]c1=O [AZT, azidothymidine, reference compound]",–,–,–,–,–,–,> 5 µM,–,–,0.01 µM
"O=c1nc(NO)ccn1[C@@H]1O[C@H](CO)[C@@H](O)[C@H]1O [NHC, N^4-hydroxycytidine, reference compound]",25 ± 10 µM,17 ± 8 µM,> 100 µM,> 100 µM,4.7 ± 2.9 µM,–,–,23.6 ± 10.2 µM,50 ± 18 µM,–
"O=C(O)c1c(Cl)c(Cl)c(Cl)c(Cl)c1-c1c2cc(I)c(=O)c(I)c-2oc2c(I)c(O)c(I)cc12 [compound 1, Rose Bengal, disodium salt, reference compound]",> 100 µM,> 100 µM,43 ± 10 µM,43 ± 10 µM,0.5 ± 0.2 µM,> 50 µM,> 50 µM,0.11 ± 0.05 µM,> 100 µM,18 ± 7 µM
